This is an account of results in patent US11098040B2, “Compounds and methods of use” (Ferro Therapeutics, Inc., priority 2018, dated 2021).

As a reminder, the IC50 is the concentration that gives 50% inhibition.

The subject of the first assay is SJSA-1. Kind of assay: Cell viability assay (CellTiter Glo), osteosarcoma SJSA-1. The following applies: Homo sapiens, 96 hours. Format: cell-based. On the procedure:
(§1) Cell viability assay was performed to assess the potency of the compounds in human cancer cell lines KP4 (pancreatic ductal adenocarcinoma), MiaPaCa-2 (pancreatic carcinoma), AsPC-1 (pancreatic adenocarcinoma, ascites), 143B (osteosarcoma), and SJSA-1 (osteosarcoma). Selected compounds were also assayed in a human breast epithelial cell line MCF-10A, a nontumorigenic cell line as a control to assess differential activity. Cells at a density of 500-5,000 cells/well were seeded in 96-well plates and incubated at 37° C. overnight. A series of 9 different concentrations of compound stocks (500×) were created by 3-fold serial dilution in DMSO. These compounds were further diluted in culture media and then added to cells so that the final DMSO concentration was equal to 0.25% or less. After 96 hours of incubation, 50 μL of CellTiter Glo reagent (Promega) was added to each well and luminescence was measured after 10 minutes using EnVision (PerkinElmer). Compounds titrated from top concentration of up to 30 μM. The select compounds were tested initially from 30 μM as the top concentration in duplicates (range of 4.6 nM-30 μM). […] Luminescence from cells treated with DMSO alone was set as Max and % of inhibition was calculated as follows: Inhibition %=(Max-Sample value)/Max*100. Data was analyzed using XL-fit software (ID Business Solutions Ltd.). IC50, relative IC50, or % of top inhibition was calculated.
(§2) The results of the assay in sarcoma cell lines are given in Table 21a for HT-1080 luc2 (fibrosarcoma expressing a luciferase gene), Table 21b for 143B (osteosarcoma), and Table 21c for SJSA-1 (osteosarcoma).
On the technique in general: Cellular ATP, detected with luciferase, serves as a proxy for viable cell number.
Regarding `COC(=O)[C@H]1Cc2c([nH]c3ccccc23)[C@H](c2ccc(C(=O)NCCNC(=O)OC(C)(C)C)cc2)N1C(=O)CCl` [Example 16], the IC50 is 200 nM.

In turn, `CC(C)(C)OC(=O)c1ccc([C@H]2c3[nH]c4ccccc4c3C[C@H](C(=O)OC(C)(C)C)N2C(=O)CCl)cc1` [Example 19] yielded a 50% inhibitory concentration (IC50) of 215 nM.

Turning to `CC(C)OC(=O)[C@H]1Cc2c([nH]c3ccccc23)[C@H](c2ccc(C(=O)OC(C)(C)C)cc2)N1C(=O)CCl` [Example 20], the IC50 is 149 nM.

`CN(C)C(=O)[C@H]1Cc2c([nH]c3ccccc23)[C@H](c2ccc(C(=O)OC(C)(C)C)cc2)N1C(=O)CCl` [Example 21] yielded an IC50 of 170 nM.

The subject of a further assay is MCF-10A. Kind of assay: Cell viability assay (CellTiter Glo), non-tumorigenic breast epithelial cell line MCF-10A. Format: cell-based. The note with it: Homo sapiens, 96 hours. In outline: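 MCF-10A cells (500-5,000/well) treated 96 h at 37° C with 9-point 3-fold dilutions from up to 30 μM, ≤0.25% DMSO, in duplicate. Viability by CellTiter Glo luminescence; % inhibition versus DMSO-only wells gave IC50, relative IC50 or % top inhibition. Paclitaxel positive control.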
`COC(=O)[C@H]1Cc2c([nH]c3ccccc23)[C@H](c2ccc(C(=O)NCCNC(=O)OC(C)(C)C)cc2)N1C(=O)CCl` [Example 16]: the IC50 was found to be 1950 nM.

Compound `CC(C)(C)OC(=O)c1ccc([C@H]2c3[nH]c4ccccc4c3C[C@H](C(=O)OC(C)(C)C)N2C(=O)CCl)cc1` [Example 19] yielded an IC50 of 430 nM.

On to `CC(C)OC(=O)[C@H]1Cc2c([nH]c3ccccc23)[C@H](c2ccc(C(=O)OC(C)(C)C)cc2)N1C(=O)CCl` [Example 20], for which 820 nM corresponded to half-maximal inhibition (IC50).

Regarding `CN(C)C(=O)[C@H]1Cc2c([nH]c3ccccc23)[C@H](c2ccc(C(=O)OC(C)(C)C)cc2)N1C(=O)CCl` [Example 21], the half-maximal inhibitory concentration (IC50) was found to be 1580 nM.

For a further assay, the system named is 143B. Briefly: Cell viability assay (CellTiter Glo), osteosarcoma 143B. Format: cell-based. The following applies: Homo sapiens, 96 h, osteosarcoma, 96 hours, CellTiter Glo, read-out: IC50 143B. On the procedure: as §1, §2
Consider `COC(=O)[C@H]1Cc2c([nH]c3ccccc23)[C@H](c2ccc(C(=O)NCCNC(=O)OC(C)(C)C)cc2)N1C(=O)CCl` [Example 16], for which the IC50 worked out at 104 nM.

As to `CC(C)(C)OC(=O)c1ccc([C@H]2c3[nH]c4ccccc4c3C[C@H](C(=O)OC(C)(C)C)N2C(=O)CCl)cc1` [Example 19], the IC50 came out at 101 nM.

Consider `CC(C)OC(=O)[C@H]1Cc2c([nH]c3ccccc23)[C@H](c2ccc(C(=O)OC(C)(C)C)cc2)N1C(=O)CCl` [Example 20], for which the IC50 is 75 nM.

For `CN(C)C(=O)[C@H]1Cc2c([nH]c3ccccc23)[C@H](c2ccc(C(=O)OC(C)(C)C)cc2)N1C(=O)CCl` [Example 21], the IC50 is 90 nM.

For a further assay, the system named is MiaPaCa-2. Kind of assay: Cell viability assay (CellTiter Glo), pancreatic carcinoma MiaPaCa-2. Format: cell-based. The following applies: Homo sapiens, MIA PaCa-2; pancreatic carcinoma, 96 hours, CellTiter Glo; read-out: IC50 MiaPaCa-2. In outline: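 MiaPaCa-2 and AsPC-1 cells were seeded overnight at 37 °C and exposed for 96 h to 9-point, 3-fold dilutions from up to 30 μM (final DMSO ≤0.25%). CellTiter Glo luminescence was read, and inhibition was calculated relative to DMSO-only cells. IC50, relative IC50 or % top inhibition was derived.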
With `COC(=O)[C@H]1Cc2c([nH]c3ccccc23)[C@H](c2ccc(C(=O)NCCNC(=O)OC(C)(C)C)cc2)N1C(=O)CCl` [Example 16], the IC50 was determined as 24 nM.

Regarding `CC(C)(C)OC(=O)c1ccc([C@H]2c3[nH]c4ccccc4c3C[C@H](C(=O)OC(C)(C)C)N2C(=O)CCl)cc1` [Example 19], the half-maximal inhibitory concentration (IC50) worked out at 63 nM.

Take `CC(C)OC(=O)[C@H]1Cc2c([nH]c3ccccc23)[C@H](c2ccc(C(=O)OC(C)(C)C)cc2)N1C(=O)CCl` [Example 20]: the IC50 worked out at 37 nM.

Turning to `CN(C)C(=O)[C@H]1Cc2c([nH]c3ccccc23)[C@H](c2ccc(C(=O)OC(C)(C)C)cc2)N1C(=O)CCl` [Example 21], the IC50 turned out to be 64 nM.
